Read-outs that look alike come from different tables or passages of the source.

Results on eight compounds are retold here after article PMC9686747, “Antioxidant, Anti-α-Glucosidase, Antityrosinase, and Anti-Inflammatory Activities of Bioactive Components from Morus alba” (Antioxidants, 2022).

Data set [1] can be described thus: DPPH radical scavenging activity. It is filed as biochemical. The settings on record: for EC50: isolated components, read-out: SC50 DPPH. The procedure:
This assay was performed using a previously reported procedure. This experiment needs to be performed in the dark. Briefly, 100 µL of varying concentrations of extracts or compounds were mixed with 100 µL of 200 µM DPPH solution and incubated at room temperature for 30 min, and the absorbance was measured at 520 nm. DPPH radical scavenging activity was calculated using the following equation.
DPPH scavenging activity (%) = (A0 − A1)/A0 × 100, where A1 is the absorbance of the test sample, and A0 is the absorbance of the control (untreated group).
A general note: The DPPH test is a chemical assay of radical scavenging.

In a further data set the target is T1, tyrosinase (Agaricus bisporus, UniProt C7FF04).
T1 construct: purchased Sigma-Aldrich
T1 sequence (C7FF04 1-392 limits assumed): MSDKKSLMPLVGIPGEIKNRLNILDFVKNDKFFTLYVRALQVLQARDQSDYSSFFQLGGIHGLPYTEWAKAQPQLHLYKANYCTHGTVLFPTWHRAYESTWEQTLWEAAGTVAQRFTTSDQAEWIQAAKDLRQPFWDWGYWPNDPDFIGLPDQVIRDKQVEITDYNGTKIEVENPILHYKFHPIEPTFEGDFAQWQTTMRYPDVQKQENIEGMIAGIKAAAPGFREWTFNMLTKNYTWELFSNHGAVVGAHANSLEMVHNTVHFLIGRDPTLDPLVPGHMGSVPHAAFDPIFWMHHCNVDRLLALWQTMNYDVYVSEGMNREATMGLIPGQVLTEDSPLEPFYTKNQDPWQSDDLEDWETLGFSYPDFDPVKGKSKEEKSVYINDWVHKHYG
The experiment in a line: Tyrosinase inhibitory activity assay. The class given is biochemical.

The test system of data set [2] is nitric oxide (NO) production in RAW 264.7 cells. Put plainly: Nitric oxide inhibitory assay (Griess) in LPS-induced RAW264.7 cells. It is filed as cell-based, Murine. The settings on record: Mus musculus, LPS (100 ng/mL)-induced RAW 264.7 cells, read-out: NO Inhibition IC50. The procedure:
(§1) Murine RAW264.7 macrophages were cultured at 37 °C under 5% CO2 using a culture medium that was a mixture of DMEM, 10% FBS, and 1% penicillin [29]. When the cells reached […] full growth, the seeded cells were subjected to NO measurement and iNOS protein assay.
The NO inhibition assay was performed as described in [29], with slight modification. RAW264.7 cells were seeded in 96 wells for 24 h. The next day, they were divided into the following groups: medium, medium with LPS (100 ng/mL) added, medium with the positive control (quercetin) and LPS added, and medium with samples and LPS (100 ng/mL) added. The reaction time between the medium and the sample was 1 h before adding LPS and waiting 20 h after adding LPS. Finally, half of the supernatant was transferred into a new 96-well plate and mixed in a 1:1 ratio with Griess reagent. After 15 min in the dark, the reaction was measured at 550 nm.
In general terms: Griess reagent forms a coloured azo dye with nitrite.

Data set [3] is described as follows: ABTS radical scavenging activity. The class given is biochemical. The settings on record: for EC50: isolated components, read-out: SC50 ABTS. The procedure: This assay was performed using a previously reported procedure. This experiment needs to be performed in the dark. First, the reaction reagent was prepared by mixing 28 mM ABTS solution and 9.6 mM potassium persulfate solution (v/v, 1/1) and left in the dark at 4 °C for 16 h before use. The reaction reagent was diluted with ethanol until the absorbance was 0.70 ± 0.02 at 740 nm. Next, 10 μL of the extract or compound was mixed with 190 μL of the reaction reagent and incubated at room temperature for 5 min before measuring the absorbance at 740 nm. The formula of scavenging activity was calculated as follows.
ABTS radical scavenging activity (%) = (A0 − A1)/A0 × 100, where A0 and A1 are the absorbance of the control (untreated group) and test sample, respectively.

In a further data set the target is T2, α-glucosidase (Saccharomyces cerevisiae, UniProt P53341).
T2 construct: purchased Sigma-Aldrich
T2 sequence (P53341 whole entry): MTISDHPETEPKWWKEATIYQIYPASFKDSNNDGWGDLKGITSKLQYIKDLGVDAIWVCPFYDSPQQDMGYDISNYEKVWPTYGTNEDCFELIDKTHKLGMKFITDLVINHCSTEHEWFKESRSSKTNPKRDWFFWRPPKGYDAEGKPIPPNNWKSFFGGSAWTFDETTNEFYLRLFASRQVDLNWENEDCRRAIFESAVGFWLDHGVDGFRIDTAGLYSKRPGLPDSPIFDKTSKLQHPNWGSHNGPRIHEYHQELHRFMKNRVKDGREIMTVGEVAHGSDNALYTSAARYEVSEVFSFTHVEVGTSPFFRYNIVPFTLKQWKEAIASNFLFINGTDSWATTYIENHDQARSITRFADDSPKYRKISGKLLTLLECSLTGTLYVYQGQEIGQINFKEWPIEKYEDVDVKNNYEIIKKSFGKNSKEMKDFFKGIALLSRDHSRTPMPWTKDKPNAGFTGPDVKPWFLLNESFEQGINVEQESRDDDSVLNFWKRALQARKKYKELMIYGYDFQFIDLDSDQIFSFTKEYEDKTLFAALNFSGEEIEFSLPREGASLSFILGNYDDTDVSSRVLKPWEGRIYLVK
Put plainly: biochemical. The class given is biochemical.

Data set [4] is described as follows: Ferric reducing antioxidant power (FRAP). It is filed as biochemical. As for the experimental part: The FRAP assay was performed using a previously described procedure. This experiment needs to be performed in the dark. First, the reaction reagent was obtained by mixing acetate buffer (pH 3.6), ferric chloride solution (20 mM), and TPTZ solution (10 mM TPTZ in 40 mM HCl) in a ratio of 10:1:1, respectively. Next, 900 μL of the reaction reagent was mixed with 100 μL of the sample or Trolox in an Eppendorf tube, and the absorbance was measured at 593 nm after 40 min in a dry bath at 37 °C. The FRAP of the extracts was determined by a linear standard calibration curve from 0 to 100 mM Trolox with an R^2 value of 0.9999.

The nature of data set [5]: Superoxide radical scavenging activity. It is filed as biochemical. The settings on record: isolated components; read-out: SC50 Superoxide. The procedure: This assay was performed using a previously reported procedure. This experiment needs to be performed in the dark. Initially, NBT (300 μM), NADH (468 μM), and PMS (120 μM) were prepared using Tris-HCl buffer (16 mM, pH 8.0). Next, 50 μL of NBT and PMS and 10 μL of the extract or compound were mixed; subsequently, 50 μL of NADH solution was added and incubated at room temperature for 5 min before measuring the absorbance at 560 nm. The equation for the scavenging activity is as follows.
Superoxide radical scavenging activity = (A0 − A1)/A0 × 100, where A0 and A1 are the absorbance of the control (untreated group) and test sample, respectively.

Data set [6] deals with inducible nitric oxide synthase (iNOS). Put plainly: Western blot analysis of iNOS expression. The class given is cell-based, Murine. The settings on record: LPS (100 ng/mL)-induced cells, 24 h; compared to the LPS-induced group; Figure 4. As for the experimental part: as §1
Western blot analysis was performed according to the reference method, with slight modifications. Cells were cotreated with varying concentrations of samples and LPS (100 ng/mL) for 24 h. After washing the cells with ice-cold PBS, the proteins were collected with cell lysis buffer and stored at −20 °C for subsequent experiments. The quantified proteins were separated using a 10% SDS-polyacrylamide gel. Next, the proteins were transferred to polyvinylidene fluoride (PVDF) membranes by electrophoresis. The transferred PVDF membranes were immersed in 2% BSA blocking buffer for 2 h and washed two to three times with TBST. Proteins were visualized by specific primary antibodies and soaked overnight. The next day, PVDF membranes were subjected to the TBST wash step again to remove residual primary antibodies and soaked with secondary antibodies for 2 h. Finally, after repeating the TBST wash two to three times, immunoreactivity was detected with ECL reagents, and samples were exposed with a cold light meter and quantified with Image J.
In general terms: Immunoblotting shows a protein as a band on a membrane.

For the next data set, the system named is RAW 264.7 cells. Put plainly: MTT assay, cell viability. The class given is cell-based, Murine. The procedure:
as §1
The MTT assay was performed according to the reference method, with slight modifications. Cells from the 96-well plates prepared for the NO inhibition assay were added to MTT stock solution (5 mg/mL) and diluted 20-fold with medium. After 2 h, all liquid was removed, and DMSO was added. The absorbance was measured at 570 nm.

[7] abbreviates: isolated compounds, read-out: IC50 α-Glucosidase.
The mark [8] stands for this setting: isolated components, mM Trolox equivalents per gram.
[9] abbreviates: solvent extracts, 50% free radical scavenging.

`CC(C)=CCc1c(O)ccc(C(=O)[C@@H]2[C@@H](c3c(O)cc(O)c4c(=O)c(CC=C(C)C)c(-c5ccc(O)cc5O)oc34)C=C(C)C[C@H]2c2ccc(O)cc2O)c1O` [Kuwanon H (6), kuwanon H]: the EC50 in data set [1] is above 200 µM; in [3], 8.68 ± 0.93 µM; in data set [5], above 200 µM. Moreover, the IC50 (in general, the midpoint of a concentration-inhibition curve) was determined as 218 ± 41 µM on tyrosinase, 40.5 ± 4.38 µM in data set [2] (isolated components) and 4.06 ± 0.12 µM on α-glucosidase (setting [7]). Further, the “α-glucosidase inhibition, times more effective than acarbose” value at α-glucosidase (versus positive control acarbose) was “approximately 100 times”. Also, the “α-glucosidase inhibition, times more potent than other compounds” value on α-glucosidase (versus the other isolated compounds) is 2–20 times. In data set [4] (setting [8]), the “TE FRAP” value was found to be 1750.96 ± 36.30 mM/g.

In the case of `CC(C)=CCc1c(-c2ccc(O)cc2O)oc2c([C@H]3C=C(C)C[C@@H](c4ccc(O)cc4O)[C@@H]3C(=O)c3ccc(O)cc3O)c(O)cc(O)c2c1=O` [Kuwanon G (5), kuwanon G], the values for the EC50 in data set [1], in data set [3] and in [5] were above 200 µM, 9.28 ± 1.02 µM and 188 ± 19.1 µM, respectively. Further, the IC50 on tyrosinase worked out at 100 ± 9.62 µM; in data set [2] (isolated components), 17.8 ± 0.5 µM; against α-glucosidase it was 7 ± 0.31 µM. In addition, the “TE FRAP” value is listed as 3549.22 ± 160.65 mM/g in data set [4] (setting [8]) and 3549.22 ± 160.65 mM/g in [4] (isolated components, mM Trolox equivalents per gram, listed as 5).

With `Cc1cc(C(C)(C)C)c(O)c(C(C)(C)C)c1` [BHT, butylated hydroxytoluene, reference compound], the EC50 in data set [1] is 89.8 ± 7.03 µM; in [3], 116 ± 25.1 µM. Also, the “SC50 DPPH” value in [1] (setting [9]) is 19.75 ± 1.79 µg/mL. Moreover, the “SC50 ABTS” value in data set [3] (setting [9]) is 25.87 ± 5.83 µg/mL. Besides, the “TE FRAP” value was found to be 4385.56 ± 78.88 mM/g in [4] (setting [8]) and 4385.56 ± 45.54 mM/g in [4] (solvent extracts, mM Trolox equivalents per gram of extract).

Consider `Oc1cc(O)cc(/C=C/c2ccc(O)cc2O)c1` [Oxyresveratrol (3), oxyresveratrol], for which the values for the EC50 in data set [1], in data set [3] and in data set [5] were 44.4 ± 12.5 µM, 9.5 ± 2.08 µM and above 200 µM, respectively. The results for the IC50 (against tyrosinase; in data set [2] (isolated components); at α-glucosidase) were 1.89 ± 0.59 µM, 25.4 ± 3.47 µM and 8.35 ± 0.46 µM, respectively. In addition, the “TE FRAP” value in data set [4] (setting [8]) amounted to 2402.22 ± 32.91 mM/g; in [4] (isolated components, mM Trolox equivalents per gram, listed as 3), 2402.22 ± 32.91 mM/g.

For the compound `O=c1ccc2ccc(O)cc2o1` [Umbelliferone (4), umbelliferone], the EC50 in data set [1], in data set [3] and in data set [5] was above 200 µM in each case. For the same compound, the IC50 was above 400 µM on tyrosinase (isolated compounds, read-out: IC50 Tyrosinase); 36.8 ± 2.26 µM in data set [2] (isolated components); 492 ± 12.8 µM at α-glucosidase (setting [7]). The “TE FRAP” value in [4] (setting [8]) was found to be 145.23 ± 35.46 mM/g.

`O=c1c(O)c(-c2ccc(O)cc2O)oc2cc(O)cc(O)c12` [Morin (1), morin]: the figures for the EC50 in data set [1], in data set [3] and in data set [5] were 17.5 ± 3.43 µM, 12.7 ± 5.98 µM and 54.5 ± 19 µM, respectively. Besides, the results for the IC50 (against tyrosinase; in [2] (isolated components); against α-glucosidase) were 199 ± 84.4 µM, 43.3 ± 4.61 µM and 90.1 ± 10.2 µM, respectively. The “TE FRAP” value in data set [4] (setting [8]) is listed as 2963.28 ± 63.65 mM/g; in data set [4] (isolated components, mM Trolox equivalents per gram, listed as 1) it was 2963.28 ± 63.65 mM/g.

In the case of `CC(C)=CCc1c(-c2ccc(O)cc2O)oc2c3c(cc(O)c2c1=O)OC(C)(C)C=C3` [Morusin (2), morusin], the values for the EC50 in data set [1], in [3] and in data set [5] were above 200 µM, 44.2 ± 8.07 µM and above 200 µM, respectively. The half-inhibitory concentration (IC50) against tyrosinase was above 400 µM; in data set [2] (isolated components), 9.87 ± 0.59 µM; on α-glucosidase (setting [7]), 15.7 ± 2.15 µM. In addition, the “iNOS expression (Western blot)” value in [6] was “significantly reducing the expression of iNOS”. Moreover, the “TE FRAP” value in data set [4] (setting [8]) worked out at 583.43 ± 25.79 mM/g.

Take `O=c1c(O)c(-c2ccc(O)c(O)c2)oc2cc(O)cc(O)c12` [Quercetin, quercetin, reference compound]: the “cell viability (MTT)” value in the data set with RAW 264.7 cells (isolated compounds, Figure 3, except for the high dose of 100 μM) was “slight cytotoxicity at higher doses”; in the data set with RAW 264.7 cells (solvent extracts, Figure 1) it was “slight cytotoxicity at higher doses”. For the same compound, the IC50 in data set [2] (isolated components) came out at 13.2 ± 2 µM; in data set [2] (solvent extracts), 3.98 ± 0.28 µg/mL.
